The results in this text go back to PubChem BioAssay AID651901 (NMMLSC, 2012).

Calls of active or inactive are those of the source. The rule behind the calls is not given here. A value given as a limit tells only on which side of the number the result lay.

Lethal factor (Bacillus anthracis), sequence (P15917 whole entry, looked up): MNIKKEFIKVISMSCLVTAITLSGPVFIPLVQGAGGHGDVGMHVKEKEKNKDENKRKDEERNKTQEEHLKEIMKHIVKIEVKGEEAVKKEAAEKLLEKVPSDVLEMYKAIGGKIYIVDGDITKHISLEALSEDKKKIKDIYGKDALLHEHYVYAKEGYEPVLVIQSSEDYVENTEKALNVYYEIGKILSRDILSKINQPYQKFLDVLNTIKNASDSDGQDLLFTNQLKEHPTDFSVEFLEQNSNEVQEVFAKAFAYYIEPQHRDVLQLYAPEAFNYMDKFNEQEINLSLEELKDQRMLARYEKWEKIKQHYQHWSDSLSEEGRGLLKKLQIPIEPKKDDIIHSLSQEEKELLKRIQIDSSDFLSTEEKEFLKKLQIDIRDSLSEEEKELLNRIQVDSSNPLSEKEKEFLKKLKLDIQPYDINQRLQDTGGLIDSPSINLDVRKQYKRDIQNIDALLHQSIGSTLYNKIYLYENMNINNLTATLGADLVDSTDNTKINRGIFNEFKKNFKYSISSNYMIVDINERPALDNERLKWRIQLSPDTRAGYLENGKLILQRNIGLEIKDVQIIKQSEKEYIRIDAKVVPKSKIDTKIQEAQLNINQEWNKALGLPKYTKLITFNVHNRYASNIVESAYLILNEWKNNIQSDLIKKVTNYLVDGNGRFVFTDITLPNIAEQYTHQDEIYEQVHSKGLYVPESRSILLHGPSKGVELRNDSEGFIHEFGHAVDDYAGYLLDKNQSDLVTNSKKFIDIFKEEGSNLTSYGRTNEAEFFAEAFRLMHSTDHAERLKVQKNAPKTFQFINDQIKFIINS

The assay concerns the target Lethal factor (Bacillus anthracis) (UniProt P15917). Briefly: Bacillus anthracis LF protease inhibitors, dose response, biochemical, multiplex microsphere (AID 651901). To be noted: multiplex microsphere LF protease cleavage assay, flow cytometry. (A flow cytometer gives signals particle by particle.)
Turning to `COc1ccc(N2N=C(c3cccnc3)CC2c2ccccc2)cc1` (centres undefined), the IC50 (commonly the point on the concentration scale where inhibition reaches its midpoint) is > 20 µM (inactive). Then `CC(C)NC(=O)c1ccc(N2N=C(c3ccccc3)CC2c2ccccc2)cc1` (centres undefined), with > 20 µM (inactive). The result for `c1ccc(C2CC(c3cccnc3)=NN2c2ccccc2)cc1` (centres undefined) reads > 20 µM (inactive); that for `CS(=O)(=O)c1ccc(N2N=C(c3ccccc3)CC2c2ccccc2)cc1` (centres undefined), > 20 µM (inactive). The result for `CSc1ccc(C2=NN(c3ccc(C(=O)N4CCCCC4)cc3)C(c3ccccc3)C2)cc1` (centres undefined) reads > 20 µM (inactive). As for `CNC(=O)c1ccc(N2N=C(c3ccc(SC)cc3)CC2c2ccccc2)cc1` (centres undefined), the IC50 was > 20 µM (inactive). Then `CS(=O)(=O)c1ccc(N2N=C(c3ccncc3)CC2c2ccccc2)cc1` (centres undefined), with > 20 µM (inactive).

For `COc1ccc(N2N=C(c3ccccc3)CC2c2ccccc2)cc1` (centres undefined), the IC50 is > 20 µM (inactive).

In the case of `c1ccc(C2CC(c3ccccn3)=NN2c2ccccc2)cc1` (centres undefined), the IC50 is > 20 µM (inactive). Then `NS(=O)(=O)c1ccc(N2N=C(c3cccnc3)CC2c2ccccc2)cc1` (centres undefined), with > 20 µM (inactive); and `COc1ccc(N2N=C(c3ccncc3)CC2c2ccccc2)cc1` (centres undefined), with > 20 µM (inactive). The result for `CSc1ccc(C2=NN(c3ccc(C(=O)N4CCOCC4)cc3)C(c3ccccc3)C2)cc1` (centres undefined) reads > 20 µM (inactive); that for `c1ccc(-c2cc(-c3ccccc3)n(-c3ccccc3)n2)cc1`, > 20 µM (inactive); that for `c1ccc(C2=NN(c3ccccc3)C(c3ccccc3)C2)cc1` (centres undefined), > 20 µM (inactive). Take `CSc1ccc(C2=NN(c3ccc(S(C)(=O)=O)cc3)C(c3ccccc3)C2)cc1` (centres undefined): the IC50 was > 20 µM (inactive). For `CSc1ccc(C2=NN(c3ccccc3)C(c3ccccc3)C2)cc1` (centres undefined), the IC50 was > 20 µM (inactive).

In the case of `CSc1ccc(C2=NN(c3ccc([N+](=O)[O-])cc3)C(c3ccccc3)C2)cc1` (centres undefined), the IC50 was 0.1 µM. Take `NS(=O)(=O)c1ccc(N2N=C(c3ccncc3)CC2c2ccccc2)cc1` (centres undefined): the IC50 was > 20 µM (inactive). For the compound `O=C(c1ccc(N2N=C(c3ccccc3)CC2c2ccccc2)cc1)N1CCOCC1` (centres undefined), the IC50 is > 20 µM (inactive). Regarding `NS(=O)(=O)c1ccc(N2N=C(c3ccccc3)CC2c2ccccc2)cc1` (centres undefined), the IC50 is > 20 µM (inactive). The result for `CS(=O)(=O)c1ccc(N2N=C(c3cccnc3)CC2c2ccccc2)cc1` (centres undefined) reads > 20 µM (inactive); that for `CSc1ccc(C2=NN(c3ccc(S(N)(=O)=O)cc3)C(c3ccccc3)C2)cc1` (centres undefined), > 20 µM (inactive). Then `c1ccc(C2CC(c3ccncc3)=NN2c2ccccc2)cc1` (centres undefined), with > 20 µM (inactive). As to `O=[N+]([O-])c1ccc(N2N=C(c3ccccc3)CC2c2ccccc2)cc1` (centres undefined), the IC50 is > 20 µM (inactive). Then `CNC(=O)c1ccc(N2N=C(c3ccccc3)CC2c2ccccc2)cc1` (centres undefined), with > 20 µM (inactive).

For the compound `CC(C)CNC(=O)c1ccc(N2N=C(c3ccccc3)CC2c2ccccc2)cc1` (centres undefined), the IC50 is > 20 µM (inactive). The result for `COc1ccc(N2N=C(c3ccccn3)CC2c2ccccc2)cc1` (centres undefined) reads > 20 µM (inactive); that for `COc1ccc(N2N=C(c3ccc(SC)cc3)CC2c2ccccc2)cc1` (centres undefined), > 20 µM (inactive); that for `O=C(c1ccc(N2N=C(c3ccccc3)CC2c2ccccc2)cc1)N1CCCCC1` (centres undefined), > 20 µM (inactive).
